For 24 compounds, IC50 results are on record in US9468661B2, “Pyrrolidine derivatives and their use as complement pathway modulators” (priority 2012, dated 2016).

Chain of human factor D (P00746 26-253): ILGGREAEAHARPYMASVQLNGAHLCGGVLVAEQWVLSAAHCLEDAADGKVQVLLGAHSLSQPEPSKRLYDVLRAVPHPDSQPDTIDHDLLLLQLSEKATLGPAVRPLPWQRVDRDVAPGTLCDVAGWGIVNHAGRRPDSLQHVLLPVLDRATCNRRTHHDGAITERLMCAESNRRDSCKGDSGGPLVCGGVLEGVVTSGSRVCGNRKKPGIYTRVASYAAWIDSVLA

One experiment concerns the target human factor D (Homo sapiens (Human), UniProt P00746). The experiment can be described thus: biochemical. Format: biochemical. The conditions noted are these: Factor D inhibition data using Method 1; recombinant human factor D 10 nM, substrate Z-Lys-thiobenzyl, fluorescence; read-out: IC50. Here is the method: Human Complement Factor D Assay: Method 1
Recombinant human factor D (expressed in E. coli and purified using standard methods) at 10 nM concentration is incubated with test compound at various concentrations for 1 hour at room temperature in 0.1 M Hepes buffer, pH 7.5, containing 1 mM MgCl2, 1 M NaCl and 0.05% CHAPS. A synthetic substrate Z-Lys-thiobenzyl and 2,4-dinitrobenzenesulfonyl-fluoresceine are added to final concentrations of 200 μM and 25 μM, respectively. The increase in fluorescence is recorded at excitation of 485 nm and emission at 535 nm in a microplate spectrofluorimeter. IC50 values are calculated from percentage of inhibition of complement factor D-activity as a function of test compound concentration.
Turning to `CC(=O)c1nn(CC(=O)N2[C@@H]3C[C@@H]3C[C@H]2C(=O)NCC2CCC3(CCC3)CC2)c2cnccc12` [Example 3, (1R,3S,5R)-2-[2-(3-Acetyl-pyrazolo[3,4-c]pyridin-1-yl)-acetyl]-2-aza-bicyclo[3.1.0] hexane-3-carboxylic acid (spiro[3.5]non-7-ylmethyl)-amide], the IC50 worked out at 1350 nM. Regarding `CC(=O)c1nn(CC(=O)N2[C@@H]3C[C@@H]3C[C@H]2C(=O)NCC2CCC(C)(C)CC2)c2cnccc12` [Example 4, (1R,3S,5R)-2-[2-(3-Acetyl-pyrazolo[3,4-c]pyridin-1-yl)-acetyl]-2-aza-bicyclo[3.1.0] hexane-3-carboxylic acid (4,4-dimethyl-cyclohexylmethyl)-amide], the concentration for half-maximal inhibition (IC50) was determined as 955 nM. Turning to `CC(=O)c1nn(CC(=O)N2[C@@H]3C[C@@H]3C[C@H]2C(=O)N[C@@H](C)C2CCCCC2)c2cnccc12` [Example 5, (1R,3S,5R)-2-[2-(3-Acetyl-pyrazolo[3,4-c]pyridin-1-yl)-acetyl]-2-aza-bicyclo[3.1.0] hexane-3-carboxylic acid ((S)-1-cyclohexyl-ethyl)-amide], the IC50 worked out at 5250 nM. Consider `CC(=O)c1nn(CC(=O)N2[C@@H]3C[C@@H]3C[C@H]2C(=O)N[C@H](C)C2CCCCC2)c2cnccc12` [Example 6, (1R,3S,5R)-2-[2-(3-Acetyl-pyrazolo[3,4-c]pyridin-1-yl)-acetyl]-2-aza-bicyclo[3.1.0] hexane-3-carboxylic acid ((R)-1-cyclohexyl-ethyl)-amide], for which the IC50 is 71 nM. For the compound `CC(=O)c1nn(CC(=O)N2[C@@H]3C[C@@H]3C[C@H]2C(=O)NCC2CC(C)C2)c2cnccc12` (stereo partly drawn) [Example 7, (1R,3S,5R)-2-[2-(3-Acetyl-pyrazolo[3,4-c]pyridin-1-yl)-acetyl]-2-aza-bicyclo[3.1.0] hexane-3-carboxylic acid (3-methyl-cyclobutylmethyl)-amide], the IC50 stood at 259 nM. Regarding `CC(=O)c1nn(CC(=O)N2[C@@H]3C[C@@H]3C[C@H]2C(=O)NCC2CC3(CC3)C2)c2cnccc12` [Example 8, (1R,3S,5R)-2-[2-(3-Acetyl-pyrazolo[3,4-c]pyridin-1-yl)-acetyl]-2-aza-bicyclo[3.1.0] hexane-3-carboxylic acid (spiro[2.3]hex-5-ylmethyl)-amide], the IC50 was determined as 498 nM.

As to `CC(=O)c1nn(CC(=O)N2[C@@H]3C[C@@H]3C[C@H]2C(=O)N[C@H](CO)C2CCCCC2)c2cnccc12` [Example 9, (1R,3S,5R)-2-[2-(3-Acetyl-pyrazolo[3,4-c]pyridin-1-yl)-acetyl]-2-aza-bicyclo[3.1.0] hexane-3-carboxylic acid ((S)-1-cyclohexyl-2-hydroxy-ethyl)-amide], the IC50 came to 469 nM. Same read-out and setting: the figure for `CCC1(CC)CC1CNC(=O)[C@@H]1C[C@H]2C[C@H]2N1C(=O)Cn1nc(C(C)=O)c2cccnc21` (stereo partly drawn) [Example 10, (1R,3S,5R)-2-[2-(3-Acetyl-pyrazolo[3,4-b]pyridin-1-yl)-acetyl]-2-aza-bicyclo[3.1.0] hexane-3-carboxylic acid (2,2-diethyl-cyclopropylmethyl)-amide] is 1420 nM; for `CC(=O)c1nn(CC(=O)N2[C@@H]3C[C@@H]3C[C@H]2C(=O)NCC2CC2(Cl)Cl)c2ncccc12` (stereo partly drawn) [Example 11, (1R,3S,5R)-2-[2-(3-Acetyl-pyrazolo[3,4-b]pyridin-1-yl)-acetyl]-2-aza-bicyclo[3.1.0] hexane-3-carboxylic acid (2,2-dichloro-cyclopropylmethyl)-amide] it is 163 nM. Consider `CC(=O)c1nn(CC(=O)N2[C@@H]3C[C@@H]3C[C@H]2C(=O)NCC2CC2(C)C)c2ncccc12` (stereo partly drawn) [Example 12, (1R,3S,5R)-2-[2-(3-Acetyl-pyrazolo[3,4-b]pyridin-1-yl)-acetyl]-2-aza-bicyclo[3.1.0] hexane-3-carboxylic acid (2,2-dimethyl-cyclopropylmethyl)-amide], for which the IC50 was found to be 1410 nM. `CC(=O)c1nn(CC(=O)N2[C@@H]3C[C@@H]3C[C@H]2C(=O)NCC2(C)CC2(Cl)Cl)c2cnccc12` (stereo partly drawn) [Example 13, (1R,3S,5R)-2-[2-(3-Acetyl-pyrazolo[3,4-c]pyridin-1-yl)-acetyl]-2-aza-bicyclo[3.1.0] hexane-3-carboxylic acid (2,2-dichloro-1-methyl-cyclopropylmethyl)-amide]: the IC50 is 958 nM. `CC(=O)c1nn(CC(=O)N2[C@@H]3C[C@@H]3C[C@H]2C(=O)NCC2CCCC(C(F)(F)F)C2)c2cnccc12` (stereo partly drawn) [Example 14, (1R,3S,5R)-2-[2-(3-Acetyl-pyrazolo[3,4-c]pyridin-1-yl)-acetyl]-2-aza-bicyclo[3.1.0] hexane-3-carboxylic acid (3-trifluoromethyl-cyclohexylmethyl)-amide]: the half-inhibitory concentration (IC50) came out at 334 nM. On the same count and under the same terms, then `CC(=O)c1nn(CC(=O)N2[C@@H]3C[C@@H]3C[C@H]2C(=O)NC2(C3CCCCC3)CC2)c2cnccc12` [Example 15, (1R,3S,5R)-2-[2-(3-Acetyl-pyrazolo[3,4-c]pyridin-1-yl)-acetyl]-2-aza-bicyclo[3.1.0] hexane-3-carboxylic acid (1-cyclohexyl-cyclopropyl)-amide], with 358 nM; and `NC(=O)n1cc(NC(=O)N2[C@@H]3C[C@@H]3C[C@H]2C(=O)NCC2CCCCC2)c2ccccc21` [Example 25, (1R,3S,5R)-2-Aza-bicyclo[3.1.0]hexane-2,3-dicarboxylic acid 2-[(1-carbamoyl-1H-indol-3-yl)-amide]3-cyclohexylmethyl-amide], with 257 nM. Take `NC(=O)n1cc(NC(=O)N2[C@@H]3C[C@@H]3C[C@H]2C(=O)NCC2CC=CCC2)c2ccccc21` (stereo partly drawn) [Example 26, (1R,3S,5R)-2-Aza-bicyclo[3.1.0]hexane-2,3-dicarboxylic acid 2-[(1-carbamoyl-1H-indol-3-yl)-amide] 3-[(cyclohex-3-enylmethyl)-amide]]: the IC50 amounted to 305 nM. The same measure, in the same setting: the figure for `CC1(C)[C@H](CNC(=O)[C@@H]2C[C@H]3C[C@H]3N2C(=O)Nc2cn(C(N)=O)c3ccccc23)C1(Cl)Cl` [Example 27, (1R,3S,5R)-2-Aza-bicyclo[3.1.0]hexane-2,3-dicarboxylic acid 2-[(1-carbamoyl-1H-indol-3-yl)-amide] 3-[((R)-2,2-dichloro-3,3-dimethyl-cyclopropylmethyl)-amide]] is 19 nM; for `C[C@@H](NC(=O)[C@@H]1C[C@H]2C[C@H]2N1C(=O)Nc1cn(C(N)=O)c2ccccc12)C1CCCCC1` [Example 28, (1R,3S,5R)-2-Aza-bicyclo[3.1.0]hexane-2,3-dicarboxylic acid 2-[(1-carbamoyl-1H-indol-3-yl)-amide] 3-[((R)-1-cyclohexyl-ethyl)-amide]] it is 78 nM; for `CC1CCCC(CNC(=O)[C@@H]2C[C@H]3C[C@H]3N2C(=O)Nc2cn(C(N)=O)c3ccccc23)C1` (stereo partly drawn) [Example 29, (1R,3S,5R)-2-Aza-bicyclo [3.1.0]hexane-2,3-dicarboxylic acid 2-[(1-carbamoyl-1H-indol-3-yl)-amide] 3-[(3-methyl-cyclohexylmethyl)-amide]] it is 46 nM.

Regarding `[2H]C([2H])([2H])[C@@H](NC(=O)[C@@H]1C[C@H]2C[C@H]2N1C(=O)Nc1cn(C(N)=O)c2ccccc12)[C@H]1CC1(Cl)Cl` [Example 30, (1R,3S,5R)-2-Aza-bicyclo [3.1.0]hexane-2,3-dicarboxylic acid 2-[(1-carbamoyl-1H-indol-3-yl)-amide] 3-{[(R)-1-((R)-2,2-dichloro-cyclopropyl)-ethyl-2,2,2-D3]-amide}], the IC50 was 15 nM. As to `NC(=O)c1nn(CC(=O)N2[C@@H]3C[C@@H]3C[C@H]2C(=O)NC[C@H]2CC2(Cl)Cl)c2ccccc12` [Example 31, 1-(2-{(1R,3S,5R)-3-[((R)-2,2-Dichloro-cyclopropylmethyl)-carbamoyl]-2-aza-bicyclo[3.1.0]hex-2-yl}-2-oxo-ethyl)-1H-indazole-3-carboxylic acid amide], the IC50 was determined as 32 nM. For the compound `C[C@@H](NC(=O)[C@@H]1C[C@H]2C[C@H]2N1C(=O)Cn1nc(C(N)=O)c2ccccc21)[C@H]1CC1(Cl)Cl` [Example 36, 1-(2-{(1R,3S,5R)-3-[(R)-1-((R)-2,2-Dichloro-cyclopropyl)-ethylcarbamoyl]-2-aza-bicyclo[3.1.0]hex-2-yl}-2-oxo-ethyl)-1H-indazole-3-carboxylic acid amide], the IC50 stood at 25 nM. Consider `C[C@@H](NC(=O)[C@@H]1C[C@H]2C[C@H]2N1C(=O)Cn1nc(C(N)=O)c2ccncc21)[C@H]1CC1(Cl)Cl` [Example 37, 1-(2-{(1R,3S,5R)-3-[(R)-1-((R)-2,2-Dichloro-cyclopropyl)-ethylcarbamoyl]-2-aza-bicyclo[3.1.0]hex-2-yl}-2-oxo-ethyl)-1H-pyrazolo[3,4-c]pyridine-3-carboxylic acid amide], for which the IC50 was found to be 11 nM.

As for `Cc1cc2c(C(N)=O)nn(CC(=O)N3[C@@H]4C[C@@H]4C[C@H]3C(=O)N[C@H](C)[C@H]3CC3(Cl)Cl)c2cn1` [Example 38, 1-(2-{(1R,3S,5R)-3-[(R)-1-((R)-2,2-Dichloro-cyclopropyl)-ethylcarbamoyl]-2-aza-bicyclo[3.1.0]hex-2-yl}-2-oxo-ethyl)-5-methyl-1H-pyrazolo[3,4-c] pyridine-3-carboxylic acid amide], the IC50 is 40 nM.

The experiment is the same for the next values; noted with them: IC50, Factor D inhibition data using Method 1; recombinant human factor D 10 nM, substrate Z-Lys-thiobenzyl, fluorescence.
On to `CC(=O)c1nn(CC(=O)N2[C@@H]3C[C@@H]3C[C@H]2C(=O)N[C@H](C)[C@H]2CC2(Cl)Cl)c2ccc(OCc3ncccn3)cc12` [Example 32, (1R,3S,5R)-2-{2-[3-Acetyl-5-(pyrimidin-2-ylmethoxy)-indazol-1-yl]-acetyl}-2-aza-bicyclo[3.1.0]hexane-3-carboxylic acid [(R)-1-((R)-2,2-dichloro-cyclopropyl)-ethyl]-amide-Dia 1], for which the IC50 came to 6 nM.

Usually IC50 stands for the concentration that gives 50% inhibition.
